The text below walks through data of patent US20090209552A1, “Organic Compounds” (Novartis AG, priority 2006, published 2009).

By IC50 is commonly meant the concentration that gives 50% inhibition. A low value points to inhibition by little substance. The term Ki denotes a dissociation constant, usually derived from enzyme kinetics or from competition with a known ligand. A lower Ki goes with a stronger hold on the target.

Experiment [1] addresses T1, human CRTh2 (Homo sapiens, UniProt Q9Y5Y4).
T1 sequence (Q9Y5Y4 1-395): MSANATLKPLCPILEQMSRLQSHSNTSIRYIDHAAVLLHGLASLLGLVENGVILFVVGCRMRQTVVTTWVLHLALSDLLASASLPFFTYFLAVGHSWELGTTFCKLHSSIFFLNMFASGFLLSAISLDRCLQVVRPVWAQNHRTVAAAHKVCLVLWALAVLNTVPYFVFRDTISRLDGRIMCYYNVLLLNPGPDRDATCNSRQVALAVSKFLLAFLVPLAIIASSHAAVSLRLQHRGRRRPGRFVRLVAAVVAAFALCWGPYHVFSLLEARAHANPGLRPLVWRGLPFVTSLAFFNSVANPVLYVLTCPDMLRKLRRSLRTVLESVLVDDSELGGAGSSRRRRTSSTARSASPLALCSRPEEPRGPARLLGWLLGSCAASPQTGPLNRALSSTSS
The experiment is described as follows: CRTH2 cAMP functional assay in CHO.K1-CRTh2 cells. The experiment is classed as cell-based. On the set-up: expressed in transfected cells; host or cells: CHO.K1 (CHO.K1-CRTh2), whole cells. Conditions: inhibition of PGD2-mediated attenuation of forskolin-induced cAMP accumulation in CHO.K1-CRTh2 cells. The protocol:
where S is the concentration of radioligand and Kd is the dissociation constant. CRTH2 cAMP Functional Assay Protocol
This assay is conducted in CHO.K1-CRTh2 cells. cAMP is generated in the cell by stimulating cells with 5 μM forskolin, an adenylate cyclase activator. PGD2 is added to activate the CRTh2 receptor which results in the attenuation of the forskolin-induced cAMP accumulation. Potential CRTh2 antagonists are tested for their ability to inhibit the PGD2-mediated attenuation of the forskolin-induced cAMP accumulation in CHO.K1-CRTh2 cells.
For each concentration value on the dose-response curve, test compounds are prepared in assay stimulation buffer (HBSS, 5 mM HEPES, 10 μM IBMX±0.1% human serum albumin) containing DMSO (3% vol/vol) and 5 μL/well is added to an assay plate (384 well white optiplate).
CHO.K1-CRTh2 cultured in tissue culture flasks are washed with PBS and harvested with dissociation buffer. Cells are washed with PBS and re-suspended in stimulation buffer to a concentration of 0.4×10^6/mL and added to the assay plate (10 μL/well).
The assay plate is incubated at room temperature on a shaker for 15 minutes.
A mix of agonist (10 nM Prostaglandin D and 5 μM forskolin is prepared in assay stimulation buffer and added to the assay plate (5 μL/well).
In addition, a cAMP standard is serially diluted in assay stimulation buffer and added to separate empty wells on the assay plate (20 μL/well). The cAMP standard allows for the quantification of cAMP generated in CHO.K1-CRTH2 cells.
The assay plate is incubated at room temperature on a shaker for 60 minutes. […]
The assay plate is sealed with Topseal-S™ and incubated in the dark at room temperature on a shaker for 45 minutes. The plate is then counted using a Packard Fusion™ instrument. […]

Experiment [2] addresses T1, human CRTh2. The experiment is described as follows: Filtration binding assay ([3H]-PGD2 competition on CHO.K1-CRTh2 membranes). On the set-up: expressed in transfected cells; host or cells: CHO.K1 (CHO.K1-CRTh2), membranes. Conditions: [3H]-PGD2 2.5 nM, Cheng-Prussoff. The protocol:
The binding of CRTh2 modulators is determined using membranes prepared from human CRTh2-expressing Chinese Hamster Ovary cells (CHO.K1-CRTh2). To produce cell membranes CHO.K1-CRTh2 cells cultured in roller bottles are harvested using cell dissociation buffer (Invitrogen). The cells are pelleted by centrifugation (167 g, 5 min). The cell pellet is incubated in hypotonic buffer (15 mM Tris-OH, 2 mM MgCl2, 0.3 mM EDTA, 1 mM EGTA, 1× Complete™ tablet) at 4° C. for 30 minutes. At 4° C. cells are homogenized using a Polytron®) (IKA Ultra Turrax T25) for 5 bursts of 1 second. The homogenate is centrifuged (Beckman Optima TM TL Ultracentrifuge, 48000 g, 30 minutes at 4° C.). The supernatant is discarded and the membrane pellet re-suspended in homogenisation buffer (75 mM Tris-OH, 12.5 mM MgCl2, 0.3 mM EDTA, 1 mM EGTA, 250 mM Sucrose, 1× Complete™ tablet. Membrane preparations are aliquoted and stored at […]. The protein content is estimated using Bradford Protein Assay Dye (Bio Rad).
The binding of [^3H]-PGD2 (157 Ci/mmol) to CHO.K1-CRTh2 membranes is determined in the absence (total binding) and presence (non-specific binding) of unlabelled PGD2 (1 μM). Subtraction of the cpm (counts per minute) of [^3H]-PGD2 binding in presence of excess unlabelled PGD2 from that observed in the absence of excess unlabelled PGD2 is defined as specific binding. Active CRTh2 antagonists are able to compete with [^3H]-PGD2 for binding to the CRTh2 receptor and are identified in a decrease in the number of cpm bound. […]
The plates are incubated at room temperature on a shaker for 1 hour, and then harvested (Tomtec Harvester 9600) onto GF/C filter plates using wash buffer (10 mM HEPES-KOH, pH 7.4). […] Plates are then counted using a Packard Top Count instrument, […]
Ki (dissociation constant for the inhibition) values for the CRTh2 antagonists are reported. Ki values are determined using Sigma Plots software, using the Cheng-Prussoff equation. […]

As to `Cc1ccc(CNS(=O)(=O)c2cc(-c3cn(CC(=O)O)cc3C#N)cc(C(F)(F)F)c2)o1` [Example 8, (3-Cyano-4-{3-[(5-methyl-furan-2-ylmethyl)-sulfamoyl]-5-trifluoromethyl-phenyl}-pyrrol-1-yl)-acetic acid], half-maximal inhibition in experiment [1] (IC50) required 5 nM. This compound came in with an inhibitory constant (Ki) in experiment [2] of 2 nM.
For `N#Cc1cn(CC(=O)O)cc1-c1cc(Cl)cc(S(=O)(=O)N2CCN(c3ccccc3F)CC2)c1` [Example 9, (3-{3-Chloro-5-[4-(2-fluoro-phenyl)-piperazine-1-sulfonyl]-phenyl}-4-cyano-pyrrol-1-yl)-acetic acid], it took 26 nM to reach half-maximal inhibition in experiment [1] (IC50). This compound also registered an inhibition constant (Ki) in experiment [2] of 49 nM.
In turn, `N#Cc1cn(CC(=O)O)cc1-c1cc(C(F)(F)F)cc(S(=O)(=O)N2CCN(Cc3ccncc3)CC2)c1` [Example 3, {3-Cyano-4-[3-(4-pyridin-4-ylmethyl-piperazine-1-sulfonyl)-5-trifluoromethyl-phenyl]-pyrrol-1-yl}-acetic acid] showed an IC50 in experiment [1] of 2 nM. The compound further registered an inhibition constant Ki in experiment [2] of 17 nM.
